Where two headings read alike, the source gives them in different places. Marks after values point to notes of the source that are not given here. One block for each molecule: values may come before it. *1 amine or outer side, *2 acyl side, *3 side chain or, on linkers, in order; H or OH if unused. Where a SMILES comes first, the peptide text is derived from it. [ ]: non-standard residue; d: D form. X1 = O=C([C@@H]1[C@@H](F)[C@@H](O)CN1[*:1])[*:2]; X2 = O=C([C@@H]1[C@H](F)[C@@H](O)CN1[*:1])[*:2]
How the values were obtained:
CHI Log D determination = type: physicochemical; settings: reversed-phase HPLC, Phenomenex Luna C18 column, pH 7.4; read-out: CHI LogD7.4
Method: Using a fast gradient, reverse-phase HPLC method to determine the chromatographic hydrophobicity index (CHI) was determined as described by Camurri and Zaramella (ref. 26) and Valko et al. (ref. 27).
Briefly, by plotting the retention time of a set of reference compounds against known CHI values. The CHI value of test compounds was then calculated according to their retention time.
Test compounds were prepared as 0.5 mM solutions in 50:50 acetonitrile:water and analysed by reversed-phase HPLC-UV (wavelength 254 nm) using a Phenomenex Luna C18 100Å 150 x 4.6mm 5 micron column with a gradient of aqueous phase (50 mM ammonium acetate, pH 7.4) and mobile

[1] = Intrinsic clearance in mouse liver microsomes; type: in vitro ADME; settings: 0.5 µM
Method: (§1) Test compound (10 µM) was incubated in pre-warmed plasma at 37 ᵒC (that is buffered to pH 7.4 in ratio of 70:30 plasma to buffer). Immediately, at time zero, then at 30, 60, 120, and 180 min, a 50 µL aliquot of the incubation mixture was removed and mixed with 200 µL acetonitrile containing Donepezil as the internal standard (50 ng/ml) to stop the reaction. The samples were centrifuged to sediment the precipitated protein and the plates then sealed prior to UPLC-MS/MS analysis using a Quattro Premier XE (Waters Corporation, USA).
(§2) XLfit (IDBS, UK) was used to calculate the exponential decay and consequently the rate constant (k) from the ratio of peak area of test compound to internal standard at each time point. The half-life was calculated for each test compound from the rate by using the following calculation:
(§3) Test compound (0.5 µM) was incubated with female CD1 mouse liver microsomes (Xenotech LLC TM; 0.5 mg/mL in 50mM potassium phosphate buffer, pH 7.4) and the reaction started with addition of excess NADPH (8 mg/mL 50 mM potassium phosphate buffer, pH 7.4). […]
(§4) from the ratio of peak area of test compound to internal standard at each time point. The rate of intrinsic clearance (CLi) of each test compound was then calculated using the following calculation: […]

[2] = biological target: T1, VBC (VHL, elongin B, elongin C) (Homo sapiens, UniProt P40337); test: ITC of peptides and ligands against VBC; type: binding; settings: for ΔG / ΔH / –TΔS / Kd: ITC, 25°C; for Kd: mean ± s.e.m.; for fold difference in binding affinity compared to VH032: relative to VH032 Kd
T1 construct: VHL (54–213), ElonginC (17–112) and; His6 (N, cleaved yes); made in house; host or cells: Escherichia coli BL21(DE3)
T1 sequence (P40337 54-213): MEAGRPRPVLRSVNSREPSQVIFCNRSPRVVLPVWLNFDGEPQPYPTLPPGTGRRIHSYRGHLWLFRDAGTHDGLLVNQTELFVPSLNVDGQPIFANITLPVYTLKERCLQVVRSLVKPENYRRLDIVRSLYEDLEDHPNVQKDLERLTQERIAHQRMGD
T1 sequence (Q15369 17-112 partner limits assumed): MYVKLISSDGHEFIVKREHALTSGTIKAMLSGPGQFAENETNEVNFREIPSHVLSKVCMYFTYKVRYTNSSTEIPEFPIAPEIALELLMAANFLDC
T1 sequence (Q15370 1-104 partner limits assumed): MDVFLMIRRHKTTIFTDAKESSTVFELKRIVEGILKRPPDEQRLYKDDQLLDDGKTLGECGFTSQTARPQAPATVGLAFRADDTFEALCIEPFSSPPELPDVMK

Plasma stability = type: in vitro ADME; settings: 37 °C, pH 7.4, read-out: plasma stability T1/2
Method: as §1, §2, §3, §4

[3] = Parallel artificial membrane permeability assay (PAMPA); type: in vitro ADME; settings: pH 7.4, 10 µM
Method: Parallel Artificial Membrane Permeability Assay (PAMPA)
PAMPA was performed using a 96-well pre-coated BD Gentest™ PAMPA plate (BD Biosciences, U.K.). Each well was divided into two chambers; donor and acceptor, separated by a lipid-oil-lipid tri-layer constructed in a porous filter. The effective permeability, Pe, of the compound was measured at pH 7.4. Stock solutions (5 mM) of the compound were prepared in DMSO. The compound was then further diluted to 10 µM in phosphate buffered saline at pH 7.4. The final DMSO concentration did not exceed 5% v/v. The compound dissolved in phosphate buffered saline was then added to the donor side of the membrane and phosphate buffered saline without compound was added to the acceptor side. The PAMPA plate was left at room temperature for 5 h. After which time, an aliquot (100 µl) was then removed from both acceptor and donor compartments and mixed with acetonitrile (80 µl) containing an internal standard. The samples were centrifuged (10 min, 5 °C, 3270 g) to sediment precipitated protein and sealed prior to UPLC-MS/MS analysis using a Quattro Premier XE (Waters Corp, USA). Pe was calculated as shown in the below equation: […]
C D(t)= peak area of compound present in donor well at time t = 18000 s Recovery of compound from donor and acceptor wells was calculated and data was only accepted when recovery exceeded 70%.

[4] = design: method as in Frost et al. 40; settings: ref Frost et al. 40; cited from earlier work
[5] = design: method as in Frost et al. 40; settings: ref Frost et al. 40; cited from earlier work; remark: listed apart in the source
[6] = design: method as in Frost et al. 40; settings: ref Frost et al. 40; cited from earlier work; remark: listed apart in the source
A549 cells = test: A549 colony-formation assay; type: cell-based; settings: 7 days, crystal violet
Method: A549 Colony-Formation Assay
A549 cells were seeded in clear, Nunc™ Edge 2.0 96 -w ell plates (Thermo Scientific) at 1000 cells per well and incubated at 37°C in DMEM. After 24 h cells were treated with test compounds from 10 µM to 100 nM , with a final DM SO of 0.1%. The cells were left to grow until DM SO -treated wells reached ~100% confluence (~8 days), at which point they were washed with PBS, fixed with 100% MeOH (30 min 4°C), stained with 0.1% crystal violet (30 min at r.t.) and left to dry overnight. Once dried plates were imaged on an Epson Perfection V800 scanner, at a resolution of 1200 DPI and in 48 -bit colour.
For dose-response curves, crystal-violet dye was extracted by the addition of 200 µl 1% SDS to each well, and incubation for 3 h at r.t. The absorbance at 595nm of each well was measured on a Pherastar FS (BMG), normalised for each compound and plotted against compound concentration.
(1 picture or pasted object on this page, not shown here)

MV4;11 cells = test: CellTiter-Glo cell viability assay; type: cell-based; settings: for EC50: MV4-11, 72 h
Method: MV4;11 cells (15000 cells per well) were dosed for 72 h with compounds serially diluted (1:3) on a clear-bottom 384-well plate with a final concentration of 0.05% (v/v) DMSO. After treatment, Promega CellTiter-Glo luminescent cell viability assay (G7572) was added to the cells according to the manufacturer instructions. The signal from each well was recorded on a BM G Labtech Pherastar luminescence plate reader with recommended settings.
Normalized data were analyzed and plotted with Graphpad Prism software in the ‘log(inhibitor) vs. response -- Variable slope (four parameters)’ module. EC50 values of each test compound were […]

SMILES: CC(=O)N[C@H](C(=O)N1C[C@H](O)[C@H](F)[C@H]1C(=O)NCc1ccc(-c2scnc2C)cc1)C(C)(C)C [14a]
chromatographic logD (CHI Log D determination): 1.3
mouse microsomal stability [1]: <0.50 mL/min/g liver
ΔG [2]: –9.02 ± 0.01 kcal/mol
ΔH [2]: –7.2 ± 0.5 kcal/mol
–TΔS [2]: –1.8 ± 0.5 kcal/mol
fold difference in binding affinity compared to VH032 [2]: ≤ 2 fold
half-life at 10 µM (Plasma stability): > 3 h
Papp at 5 h, 10 µM [3]: 0.23 ×10⁻⁶ cm/s

SMILES: CC[C@H](C)[C@H](NC(=O)[C@H](Cc1ccc(O)cc1)NC(=O)[C@@H]1[C@@H](F)[C@@H](O)CN1C(=O)[C@H](C)NC(=O)[C@H](CC(C)C)NC(=O)[C@H](C)NC(=O)[C@H](CCC(=O)O)NC(=O)[C@@H](N)CC(=O)O)C(=O)N1CCC[C@H]1C(=O)N[C@@H](CCSC)C(=O)N[C@@H](CC(=O)O)C(=O)N[C@@H](CC(=O)O)C(=O)N[C@@H](CC(=O)O)C(=O)N[C@@H](Cc1ccccc1)C(=O)N[C@@H](CCC(N)=O)C(=O)N[C@@H](CC(C)C)C(=O)N[C@@H](CCCNC(=N)N)C(=O)N[C@@H](CO)C(=O)N[C@@H](Cc1ccccc1)C(N)=O [13a] (H-DEALA[X1]YIPMDDDFQLRSF-NH2)
Kd [2]: 12 ± 2 nM

SMILES: CC(=O)N[C@H](C(=O)N1C[C@H](O)C[C@H]1C(=O)NCc1ccc(-c2scnc2C)cc1)C(C)(C)C [VH032]
mouse microsomal stability [4]: 0.70 ^a mL/min/g liver
CHI LogD7.4 [5]: 0.90 ^a
plasma stability T1/2 [6]: >180 ^a min

SMILES: Cc1ncsc1-c1ccc(CNC(=O)[C@@H]2C[C@@H](O)CN2C(=O)[C@@H](NC(=O)COCCOCCOCCNC(=O)C[C@@H]2N=C(c3ccc(Cl)cc3)c3c(sc(C)c3C)-n3c(C)nnc32)C(C)(C)C)cc1 [MZ1, reference compound]
effect on cell growth, colony formation (in words) (A549 cells): profound concentration-dependent cytotoxicity
pEC50, antiproliferative activity (MV4;11 cells; 72 h): 7.3
Emax (MV4;11 cells; Homo sapiens, 72 h, read-out: Emax, maximal response at highest concentration): 98%
EC50 (MV4;11 cells; Homo sapiens, read-out: EC50, antiproliferative activity): 54.7 nM
EC50 (MV4;11 cells; Homo sapiens, read-out: pEC50, antiproliferative activity (converted)): 54.7 nM

More lines, now with the values ahead:

chromatographic logD (CHI Log D determination): 1.3
mouse microsomal stability [1]: 0.68 mL/min/g liver
ΔG [2]: –7.55 ± 0.03 kcal/mol
ΔH [2]: –3.9 ± 0.5 kcal/mol
–TΔS [2]: –3.8 ± 0.4 kcal/mol
Kd [2]: 3080 nM
fold difference in binding affinity compared to VH032 [2]: ~20 fold
half-life at 10 µM (Plasma stability): > 3 h
Papp at 5 h, 10 µM [3]: 0.081 ×10⁻⁶ cm/s
SMILES: CC(=O)N[C@H](C(=O)N1C[C@H](O)[C@@H](F)[C@H]1C(=O)NCc1ccc(-c2scnc2C)cc1)C(C)(C)C [14b]

Kd [2]: 52 ± 3 nM
SMILES: CC[C@H](C)[C@H](NC(=O)[C@H](Cc1ccc(O)cc1)NC(=O)[C@@H]1[C@H](F)[C@@H](O)CN1C(=O)[C@H](C)NC(=O)[C@H](CC(C)C)NC(=O)[C@H](C)NC(=O)[C@H](CCC(=O)O)NC(=O)[C@@H](N)CC(=O)O)C(=O)N1CCC[C@H]1C(=O)N[C@@H](CCSC)C(=O)N[C@@H](CC(=O)O)C(=O)N[C@@H](CC(=O)O)C(=O)N[C@@H](CC(=O)O)C(=O)N[C@@H](Cc1ccccc1)C(=O)N[C@@H](CCC(N)=O)C(=O)N[C@@H](CC(C)C)C(=O)N[C@@H](CCCNC(=N)N)C(=O)N[C@@H](CO)C(=O)N[C@@H](Cc1ccccc1)C(N)=O [13b] (H-DEALA[X2]YIPMDDDFQLRSF-NH2)

Kd [2]: 11 ± 1 nM
SMILES: CC[C@H](C)[C@H](NC(=O)[C@H](Cc1ccc(O)cc1)NC(=O)[C@@H]1C[C@@H](O)CN1C(=O)[C@H](C)NC(=O)[C@H](CC(C)C)NC(=O)[C@H](C)NC(=O)[C@H](CCC(=O)O)NC(=O)[C@@H](N)CC(=O)O)C(=O)N1CCC[C@H]1C(=O)N[C@@H](CCSC)C(=O)N[C@@H](CC(=O)O)C(=O)N[C@@H](CC(=O)O)C(=O)N[C@@H](CC(=O)O)C(=O)N[C@@H](Cc1ccccc1)C(=O)N[C@@H](CCC(N)=O)C(=O)N[C@@H](CC(C)C)C(=O)N[C@@H](CCCNC(=N)N)C(=O)N[C@@H](CO)C(=O)N[C@@H](Cc1ccccc1)C(N)=O [13c, reference compound]

Reference: publication PMC6430500, “3-Fluoro-4-hydroxyprolines: Synthesis, Conformational Analysis, and Stereoselective Recognition by the VHL E3 Ubiquitin Ligase for Targeted Protein Degradation” (Journal of the American Chemical Society, 2018)
